Laboratory results: patent US20180325930A1, “Use of Oligosaccharide Compounds for Activating Angiogenesis” (Urgo Recherche Innovation et Developpement, priority 2015, published 2018)

Test system: chick embryo chorioallantoic membranes (CAM)
Assay: chicken ex ovo chorioallantoic membrane (CAM) angiogenesis model
Assay type: in vivo
From the text: This consists of a vascularised membrane found in bird or reptile eggs. In mammals, this structure forms the placenta. The model for the study will be a chicken ex OVO (without the shell) CAM model.
Fertilised chicken eggs were used.
For the study, VEGF-A was used as the positive control.
Potassium sucrose octasulphate salt (KSOS) is presented in the form of a solution at different concentrations, buffered with PBS.
A PBS buffer solution was used as a negative control.
On receipt, the eggs are stored at 13° C. to stop the development thereof until the time of the study. The eggs are then placed in incubation in a hatcher at 37° C. to enable the development of the embryo.
At 3 days, the eggs are broken unto a weighing cup so as to remove the shell, thereby rendering the embryo and all the structures accessible for future treatment. The ex ovo embryos are then placed back in the hatcher where they will continue the in vitro development thereof.
The embryos will be treated in the vehicle (PBS only), VEGF or different concentration of KSOS.
The treatment area is delimited by a silicone ring 1 cm in diameter and 0.2 in thickness. The treatment volume is 25 μl. The treated embryos are placed back in the hatcher for 48 hours.
After 48 hours of incubation, 10% skimmed milk is injected between the CAM and the yolk to separate the 2 vascularisations and increase the contrast for an optimal photographic shot. A photo is taken of the treatment area with a NIKON AZ 1 OO, NIS-element capture software, with 0.5×4 magnification.
On the basis of these photos, a number of parameters were determined using the image analysis software: • a) the total tube length (sum of the lengths of each vessel in the image), • b) the number of segments (total number of vessels connected to a branch point), • c) the number of branch points (total number of junctions connected to a segment). • b and c are representative of the formation of new characteristic vessels of angiogenesis.

| Compound | angiogenesis activation (significance with respect to VEGF-A or 100 mg/mL KSOS) (30 mg/mL, 48 hours) | vascular network visible (30 mg/mL, 48 hours) | angiogenesis activation (significance with respect to VEGF-A or 100 mg/mL KSOS) (50 mg/mL, 48 hours) | vascular network visible (50 mg/mL, 48 hours) | 3 parameters measured (total tube length, number of segments, number of branch points), image analysis vs PBS (100 mg/mL, 48 hours) | angiogenesis activation compared with positive control VEGF-A (100 mg/mL, 48 hours) | vascular network observed on photos (100 mg/mL, 48 hours) | CAM vascularisation at the treatment area (overall, according to the dose) (3-100 mg/mL, 48 hours) | vascular change with respect to the negative control (PBS only), photos (from 30 mg/mL, 48 hours) | concentration from which angiogenesis activation is considered significant (inferred from results at 50 and 100 mg/mL, 70 mg/mL not tested) [mg/mL] | neovascularisation of the CAM (photos of treatment area) (VEGF 0.5 μg (20 μg/mL), 25 μl, 48 hours) | 3 parameters measured (total tube length, number of segments, number of branch points), image analysis vs PBS (VEGF 0.5 μg (20 μg/mL), 48 hours) |
| --- | --- | --- | --- | --- | --- | --- | --- | --- | --- | --- | --- | --- |
| O=S(=O)([O-])OCC1OC(OC2(COS(=O)(=O)[O-])OC(COS(=O)(=O)[O-])C(OS(=O)(=O)[O-])C2OS(=O)(=O)[O-])C(OS(=O)(=O)[O-])C(OS(=O)(=O)[O-])C1OS(=O)(=O)[O-].[K+].[K+].[K+].[K+].[K+].[K+].[K+].[K+] (stereo not drawn) [KSOS, potassium sucrose octasulphate salt] | not considered to be significant | poorly developed vascular network | not considered to be significant | poorly developed vascular network | significant increase | angiogenesis activation equivalent to that observed with VEGF-A | well-developed vascular network | increase in CAM vascularisation | slight vascular change | ≥ 70 | – | – |
| VEGF [reference compound] | – | – | – | – | – | – | – | – | – | – | anarchic neovascularisation | significant increase |
